Data on one molecule can be found in US11116747B2, “Compositions comprising proanthocyanidins and oenothein B” (Nugerontix Limited, priority 2014, dated 2021).

Assay [1] deals with Kruppel-like factor 2 (KLF2) mRNA. Put plainly: KLF2 mRNA levels in endothelial cells by qRT-PCR. Particulars: 24 h; OTb 1 μg/ml, Ap-OPC 1 μg/ml; normalised to RNA polymerase 2; FIG. 4(A). In kind it is cell-based, bovine. How it is done:
(§1) The effects on endothelin-1 synthesis of purified procyanidins and ellagitannins, either alone or in combination, are tested on human, bovine or porcine aortic endothelial cells cultured in multi-well plates. Cells are grown in a CO2 incubator with specific growth media until becoming confluent. Purified extracts, chromatography fractions, or isolated procyanidins and ellagitannins are evaluated after dilution in cell culture media and then incubated for up to 24 h with the cultured cells. At the end of the incubation period cell culture media samples are collected, and endothelin-1 synthesis is determined by immunoassay of the media samples. ET-1 release for each treated well is expressed as a percentage of basal release from control wells containing cells incubated with cell culture medium alone. Data are compared and analysed for statistically significant differences using life sciences software such as Graphpad Prism (available from www.graphpad.com). At the end of the incubation period cells are lysed to obtain mRNA to measure changes in gene expression that indicate improved endothelial function. Analyses of relative levels of mRNA transcripts are undertaken by quantitative reverse transcription polymerase chain reaction (qRT-PCR) (Journal of Agricultural and Food Chemistry, 2010, 58: 4008-13). […]
A general note: In qPCR the cycle at which signal appears reflects the starting amount.

For a further assay, the system named is endothelin-1 synthesis. Put plainly: Inhibition of endothelin-1 synthesis by endothelial cells (immunoassay of conditioned media). In kind it is cell-based, bovine. Particulars: for endothelin-1 synthesis, percentage of basal values: Rb-ET 2 μg/ml, GS-OPC 1 μg/ml, alone or in combination. As for the experimental part: The effects on endothelin-1 synthesis of purified procyanidins and ellagitannins, either alone or in combination, are tested on human, bovine or porcine aortic endothelial cells cultured in multi-well plates. Cells are grown in a CO2 incubator with specific growth media until becoming confluent. Purified extracts, chromatography fractions, or isolated procyanidins and ellagitannins are evaluated after dilution in cell culture media and then incubated for up to 24 h with the cultured cells. At the end of the incubation period cell culture media samples are collected, and endothelin-1 synthesis is determined by immunoassay of the media samples. ET-1 release for each treated well is expressed as a percentage of basal release from control wells containing cells incubated with cell culture medium alone. Data are compared and analysed for statistically significant differences using life sciences software such as Graphpad Prism (available from www.graphpad.com). At the end of the incubation period cells are lysed to obtain mRNA to measure changes in gene expression that indicate improved endothelial function. Analyses of relative levels of mRNA transcripts are undertaken by quantitative reverse transcription polymerase chain reaction (qRT-PCR) (Journal of Agricultural and Food Chemistry, 2010, 58: 4008-13).
Oenothein B (>95% purity) was purified from pomegranate juice by Sephadex LH20 chromatography and reverse-phase HPLC (step 1—Apex Prepsil 8 μm C-18 10×250 mm HPLC column—Jones Chromatography; step 2 Luna 5 μm PFP(2) 4.6×250 mm HPLC column—Phenomenex). Ability to modify endothelial function was assessed by incubating oenothein B with bovine aortic endothelial cells and measuring endothelin-1 synthesis following previously described methods (Journal of Agricultural and Food Chemistry, 2010, 58: 4008-13).
Biologically active biotin-labelled apple oligomeric procyanidins were prepared as follows: apple polyphenol extract was fractionated on Sephadex LH20 to obtain a fraction enriched in apple oligomeric procyanidins (OPC) tetramers to hexamers. The fraction was dried, re-dissolved in dimethyl formamide and reacted with the tetrafluorophenyl ester of triethyleneglycol-biotin (Thermo Scientific EZ-Link™ TFP-PEG3-Biotin). […]
Ellagitannins: oenothein B (OTb, 1 μg/ml), raspberry seed extract (Rb-ET 2 μg/ml); oligomeric procyanidins (OPC): grape seed extract (GS-OPC, 1 μg/ml) and apple extract (Ap-OPC, 1 μg/ml) purified as above, were incubated either alone, or in combination, with bovine aortic endothelial cells for 6 h and 24 h (FIGS. 2(A) and 2(B)). […] Statistical differences were determined by ANOVA (**=P<0.01; ***=P<0.001 indicates significant difference compared to basal values; ^+++=P<0.001 compared to the individual components of the combinations alone). […]

In a further assay the test system is endothelin-1 (ET-1) mRNA. Put plainly: Endothelin-1 mRNA levels in endothelial cells by qRT-PCR. The format is cell-based, bovine. Particulars: 24 h; OTb 1 μg/ml, Ap-OPC 1 μg/ml; normalised to RNA polymerase 2; FIG. 4(C). As for the experimental part:
as §1

Assay [2] relates to endothelial nitric oxide synthase (eNOS) mRNA. Put plainly: eNOS mRNA levels in endothelial cells by qRT-PCR. The format is cell-based, bovine. Particulars: 24 h; OTb 1 μg/ml, Ap-OPC 1 μg/ml; normalised to RNA polymerase 2; FIG. 4(B). As for the experimental part:
as §1

Assay [3] has as its system bovine aortic endothelial cells. Put plainly: Binding of biotinylated-OPC to endothelial cells (neutravidin-horseradish peroxidase/TMB detection). The format is cell-based. Particulars: oenothein B 30 min preincubation, then biotinylated-OPC 1 μg/ml with oenothein B 30 min, FIG. 1(C). As for the experimental part: Bovine aortic endothelial cells were incubated with oenothein B (μg/ml) from pomegranate juice for 30 min before addition of biotinylated-OPC (1 μg/ml) alone or with oenothein B (μg/ml) for 30 min. After removal of the incubation mixture, bound biotinylated-OPC was detected by incubation with neutravidin-horseradish peroxidase for 1 h; followed by addition of TMB substrate for 30 min after cells had been rinsed twice to remove excess neutravidin-horseradish peroxidase. Binding is indicated relative to biotinylated-OPC alone after subtraction of background signal. (All data are shown as mean±SD; *=P<0.05; **=P<0.01; ***=P<0.001 indicates significant differences from basal or control values). […] From this it can be concluded that oenothein B increases the affinity of endothelial cells for procyanidins, and enhances the effectiveness of procyanidins for reversing endothelial dysfunction.

As for `O=C(O[C@@H]1[C@H]2OC(=O)c3cc(O)c(O)c(O)c3Oc3cc4c(c(O)c3O)-c3c(cc(O)c(O)c3O)C(=O)OC[C@H]3O[C@@H](O)[C@H](OC(=O)c5cc(O)c(O)c(O)c5Oc5cc6c(c(O)c5O)-c5c(cc(O)c(O)c5O)C(=O)O[C@@H]1[C@@H](COC6=O)O[C@H]2O)[C@@H](OC(=O)c1cc(O)c(O)c(O)c1)[C@@H]3OC4=O)c1cc(O)c(O)c(O)c1` [oenothein B], the “KLF2 mRNA levels, ratio to control” value in assay [1] is on record as “relatively insignificant”. Besides, the “endothelin-1 synthesis, percentage of basal values” in the assay with endothelin-1 synthesis (6 h incubation, OTb 1 μg/ml, Ap-OPC 1 μg/ml, FIG. 2(A)) is on record as “inhibited endothelin-1 synthesis”; with endothelin-1 synthesis (24 h incubation, OTb 1 μg/ml, Ap-OPC 1 μg/ml, FIG. 2(B)) it was “much reduced”. Moreover, in the assay with endothelin-1 synthesis (24 h, OTb 1 μg/ml, Ap-OPC 1 μg/ml, Example 19, FIG. 4(D)), the endothelin-1 total synthesis entry was “largely unaffected”. Besides, the “inhibition of endothelin-1 synthesis” value in the assay on endothelin-1 synthesis (bovine aortic endothelial cells, FIG. 1(A), 1(B)) is “concentration dependent”. The “endothelin-1 (ET-1) mRNA levels, ratio to control” value in the assay with endothelin-1 (ET-1) mRNA is “largely unaffected”. Moreover, in assay [2], the “eNOS mRNA levels, ratio to control” value is reported as “little effect”. In assay [3], the “binding of biotinylated-OPC relative to biotinylated-OPC alone” value is recorded as “binding of procyanidins increases as oenothein B concentration increases”.
